Experimental data from patent US4300557A, “Method for treating intraocular malignancies” (The United States of America as represented by the …, priority 1980, dated 1981).
Where two headings read alike, the source gives them in different places.

How the values were obtained:
[1] = Stability of BCNU in aqueous solution (absorbance at 232 nm); assay type: physicochemical
Description: The decomposition of BCNU in water and in 1% aqueous ethanol was followed by measuring the characteristic BCNU absorbance maximum at 232 nm, using a Beckman DK-2A spectrophotometer. A second maximum that appeared at 190 nm and increased during decomposition was not a reliable indicator of the drug's breakdown.

[2] = tested on: E. coli; assay: Microbiological assay of BCNU: inhibition of E. coli in agar plates; assay type: cell-based
Procedure: BCNU activity was evaluated by placing a silicone balloon containing BCNU in 0.2 ml of ethanol in a gelled agar plate seeded with E. coli (10^6 colonies/ml). The balloon was covered with a layer of seeded agar. The culture was incubated overnight at 35° C. and the zone of inhibition was measured. The balloons were transferred daily to new plates and the procedure repeated as long as activity was detected. The diameters of the zones of inhibition were compared with a standard semilogarythmic plot obtained using known amount of BCNU absorbed in filter paper about the size of the balloons. […] In control experiments with balloons filled with 0.2 ml of ethanol no inhibition of E. coli was observed. After a single overnight incubation, all of the alcohol had diffused from the balloon.
The smaller zone was very clear, and probably totally free of bacterial growth. The larger one was distinct, but had some diffuse bacterial growth. […] The microbiological assay is a useful test of cytotoxic activity of the implants, but the results are only semiquantitative, owing to simultaneous decomposition and diffusion of BCNU.
A 10 mg sample of solid was placed in a 7-mm-diameter reservoir made of two silicone membranes (0.1 mm thick) separated by a silicone rubber ring spacer (1.0 mm wide×1.5 mm thick) and glued with silicone adhesive. The sandwich-type silicone device containing 10 mg of solid BCNU was imbedded in agar plates seeded with E. coli and incubated repeatedly as in Example 5(a).

[3] = tested on: Brown-Pearce epithelioma; assay: Histopathological observations of enucleated rabbit eyes with Brown-Pearce epithelioma; assay type: in vivo, New Zealand female albino rabbits
Description: Preoperative examination of 28 eyes in 14 New Zealand femal albino rabbits weighing 2.0 to 2.5 kg included biomicroscopy, tonotometry, and indirect ophthalmoscopy. All animals had normal eyes. Both eyes of each animal were inoculated intracamerally with Brown-Pearce epithelioma tissue by the technique at 993 of Liu et al., Invest. Ophthalmol Visual Sci., Vol. 17 (1978).
Three days after tumor tissue implantation, a silicone device described in Example 1 was implanted episclerally in each eye. Animals were anesthetized with sodium pentobarbital 24 mg/kg body weight administered intravenously. After routine preparation of the rabbit and the eyes, a pocket beneath the conjunctiva and Tenon's capsule was made in the upper temporal quadrant of the eye. The silicone device was inserted into the pocket but the small tube remained accessible to permit injection of test substance. Two 7-0 silk sutures were applied on both shoulders of the silicone device and on the episcleral tissue at the pars plana to hold the device in position. The conjunctiva was closed with two 7-0 silk sutures. Then 0.15 ml of the BCNU solution or the diluent (control) was injected into the device with a tuberculin syringe and a 30-gauge needle through the tube which was outside the closed conjunctiva as shown in FIG. 5. The injecting tube was fixed on the upper fornix.
Seven animals (Group 1A) received 3.0 mg of BCNU in 0.15 ml of sesame oil in one eye on the third, sixth, and ninth days after tumor implantation (total dose 9.0 mg). Three animals (Group 1B) received 12.0 mg of BCNU in 0.15 ml of sesame oil on the same schedule (total dose 36.0/mg). Four animals (Group II) received 13.0 mg of BCNU in pure ethanol on the third and sixth days after tumor implantation (total dose 26.0 mg). The fellow eyes served as controls and received diluent only.
Ocular examinations were made on alternate days during the 20 days following tumor implantation; at that time all eyes were enucleated. The effectiveness of treatment was measured by (1) comparing the extent of tumor growth in the anterior chamber of treated and control eyes, (2) noting the occurrence of distortion and perforation of the globe due to tumor growth, (3) weighing all eyes following enucleation, and (4) comparing the histopathologic changes in the eyes.
The enucleated eyes were fixed in 10% buffered formalin in preparation for histopathological examination. A sagittal section on either side of the optic nerve was made. Pupil-optic nerve sections and the two calottes were processed routinely for histologic evaluation, using hematoxyline and eosin (H&E) stain. The eyes were imbedded in paraffin and cut in sections 6μ thick for light microscopy. Every fifth section was stained. About 50 sections from each eye were examined.

[4] = ethanol in silicone rubber capsule, Schmidt et al.; cited from earlier work
[5] = cited from earlier work

Work on O=NN(CCCl)C(=O)NCCCl [BCNU, 1,3-bis-(2-chloroethyl)-1-nitrosourea] yielded a half-life ([1]; 1% ethanol, 1% ethanol solution, of the order of, read-out: Decomposition of BCNU in 1% ethanol solution) of roughly 4.1 h, a half-life ([1]; 1% ethanol, 37° C., read-out: half-life of BCNU in 1% ethanol) of 4.1 h and a half-life ([1]; water, 37° C., read-out: half-life of BCNU in water) of 3.83 h. For the same compound, the “depletion of drug activity, solid BCNU in sandwich-type silicone device” value ([2]; 10 mg solid BCNU versus 10 mg BCNU in 0.2 ml ethanol in balloon) was “depletion of drug activity similar to that obtained with 10 mg BCNU in 0.2 ml ethanol in a silicone balloon”, the “activity in the seventh incubation” value ([2]; 30 and 40 mg BCNU in 0.2 ml ethanol) was “zero activity” and the “activity in consecutive incubations” value ([2]; 30 and 40 mg BCNU in 0.2 ml ethanol, daily incubations at 35° C.) was “comparable activity for six consecutive incubations”. For the same compound, the “duration of inhibition of growth of E. coli cultures” value ([2]; 30 or 40 mg BCNU in ethanol, silicone microballoons) was 6 days, the zones of inhibition ([2]; BCNU in 0.2 ml ethanol, balloons, overnight 35° C.) was “two concentric and distinct zones of inhibition” and the “BCNU remaining inside balloons after first incubation in agar” value ([2]; BCNU in ethanol) was “essentially pure BCNU remains inside the balloons”. The “BCNU content of balloons after first night's incubation” value ([2]; BCNU in ethanol, after first overnight incubation) was roughly 100%, the “inhibitory activity versus filter paper impregnated with known amounts of BCNU” value ([2]; ethanolic solutions in silicone microballoons) was “unimpaired” and the “infiltration and extrascleral extension, histology” value ([3]; Group I, BCNU in sesame oil) was “The inner scleral and corneal lamellae were infiltrated with tumor; no extrascleral extension was noted”. The mitotic index ([3]; Group I, BCNU in sesame oil) was “remained high”, the necrosis ([3]; Group I, BCNU in sesame oil) was “necrosis was prominent” and the “tumor extent, histology” value ([3]; Group I, BCNU in sesame oil) was “Tumor growth tended to be limited to the anterior segment, but in some instances replaced the iris and ciliary body”. For the same compound, the “intraocular architecture and invasion of the cornea or sclera” value ([3]; Group II, BCNU in pure ethanol) was “Normal intraocular architecture was maintained, with no evidence of invasion of the cornea or sclera”, the mitotic index ([3]; Group II, BCNU in pure ethanol) was 6 to 8 per high power field and the “necrosis versus control eyes” value ([3]; Group II, BCNU in pure ethanol) was “less prominent than in control eyes”. For the same compound, the “reduction of tumor growth, histology” value ([3]; Group II, BCNU in pure ethanol) was “most significant reduction of tumor growth”, the “tumor extent, histology” value ([3]; Group II, BCNU in pure ethanol) was “Only small foci of tumor, limited to the anterior segment” and the “tumor nodules in iris and ciliary body, histology” value ([3]; Group II, BCNU in pure ethanol) was “small nodules of tumor were found in the iris stroma and iris root with occasional involvement of the ciliary body”. The “histological difference between Group IA and Group IB eyes” value ([3]; total 9.0 mg versus total 36.0 mg BCNU in sesame oil) was “no observable difference histologically”, the “decrease in BCNU concentration in the dialysate” value [4] was “rapid decrease in BCNU concentration in the dialysate” and the “degradation in aqueous media” value [5] was “degrades rapidly in aqueous media”.
